Reference: patent US5099030A, “Novel compounds, pharmaceutical compositions, and methods for treating inflammation and pain” (The Procter & Gamble Company, priority 1991, dated 1992)

Key:
[1] = Carrageenan Rat Paw Edema Test; format: in vivo, male Sprague Dawley rats; conditions: oral (stomach tube), 1 h before carrageenan, paw volume 4 h after carrageenan
Protocol: Compounds of the present invention are tested for anti-inflammatory activity using the Carrageenan Rat Paw Edema Test.
Male Sprague Dawley rats (Charles River Breeding Laboratories Inc.) are weighed and food fasted overnight. The animals are divided into four to six groups of six animals each according to body weights, average about 145 g, so that each group has about the same average weight (within 10 g).
The following morning five ml of water is dosed orally via stomach tube to each animal to facilitate paw swelling. Thirty minutes later the animals are dosed with the test compound and then placed in individual cages. The compound of the present invention is dissolved in distilled deionized water with 1 equivalent of 1N acetic acid and delivered via stomach tube in 1 ml volume.
One hour after dosing the test compound, the animals are placed in a plastic restrainer and 50 ul of a 1% (w/w) carrageenan solution in 0.9% saline is injected into the ventral surface of the left rear paw. Paw volumes (0 time) are determined on both hind paws with a mercury displacement device equipped with a transducer and digitizer following the carrageenan injection. Four hours after the carrageenan injection, the paw volumes are again determined.
The results are expressed as percent inhibition of the mean paw volume of the test group relative to the control group according to the formula:
(C-T a..n)/C×100=Percent Inhibition
where C is the average difference in paw volume before and after carrageenan-induced swelling, and
Ta..n is the difference in paw swelling in the treated animals (a..n). Statistical differences are determined by one way analysis of variance.

Rodent Hot Plate Test = format: in vivo, male Sprague-Dawley rats
Protocol: The degree of thermal analgesia obtained is determined using the "rodent hot plate test" (RHP). The RHP system is designed to detect and evaluate agents which elevate the threshold for the perception of pain. Classically, this method has been utilized primarily to evaluate opioid (narcotic) analgesic agents, such as morphine.
Male Sprague-Dawley rats (Charles River Breeding Laboratories Inc.) weighing between 100 and 125 grams upon arrival are used to evaluate the compounds of the present invention. Animals are double housed in stainless steel cages, and are fed Purina Rat Chow and tap water ad libitum. The animals are food fasted the afternoon proceeding the day of the study, and food is returned 5 hours post-treatment. Animals not being dosed by oral gavage are not fasted.
The apparatus for evaluating analgesic activity consists of an insulated copper hot plate whose surface is maintained at 55°±0.5° C. by a circulating water bath. A bottomless glass container (12" (30 cm) tall by 8" (20 cm) diameter) is used to restrict the animal to a defined area of the hot plate. After dosing, the animal is placed through the top opening of the container, and a stop watch is started when the animal makes contact with the plate. The stop-watch is stopped upon either of the following visually observed end points: (1) licking or biting of either hind paw, or (2) jumping. If the jump is not successful but both hind paws leave the surface of the plate in an effort to jump, this is considered jumping. The stop-watch is stopped at the end point and the animal is immediately removed from the hot plate. The time (latency) between the initial contact of the animal on the hot plate and the endpoint is recorded.
Prior to dosing, animals are tested on the hot plate. This is denoted as pretest or base line latency. Usually, the animals are dosed by oral gavage, using a 1 cubic cm glass syringe connected to a size 8 french catheter. The dose volume is 5 ml/kg. On occasion, the animals are dosed by either subcutaneous administration or intravenous injection. Using the subcutaneous administration, a 1 ml tuberculin syringe is connected to a 25 gauge 5/8 inch needle, and injected under the skin in the neck or back region. For intravenous dosing, a 1 ml tuberculin syringe is connected to a 25 gauge 3/4 inch winged infusion set, and injected into the tail vein. The dose volume for subcutaneous and intravenous routes is 1 ml/kg. The latency times are typically recorded at 1.5, 3, 5, and 24 hours post-treatment. Much shorter times are recorded for an intravenous administration.

[2] = Mouse Abdominal Constriction Assay (phenylquinone writhing); format: in vivo, male CF-1 mice; conditions: for % Analgesia: 1.5 h post-dose
Protocol: Compounds of the present invention are tested for analgesic activity using the mouse abdominal constriction assay. This assay is described in Hendershot and Forsaith, J. Pharmacol. Exo.
Male CF-1 mice (Charles River Breeding Laboratories, Inc.), weighing approximately 20 grams and food fasted overnight, are used in these assays. Test compounds are prepared for oral (p.o.) or subcutaneous (s.c.) administration, with compounds of the present invention being prepared in acidified (1N acetic acid) distilled deionized water so that the appropriate dose is given in 0.2 mls to a 20 gram mouse.
Ten minutes after the i.p. injection of phenylquinone, the number of full body writhes are counted for the succeeding ten minutes. Percent analgesia in this assay is calculated as follows: [formula]

[3] = Oral soft gelatin capsules in human (Example VIII); format: in vivo; conditions: two oral capsules, 225 mg of composition each, 60 kg human
Protocol: (§1) A composition for oral administration is prepared by combining the following ingredients:
The octadecenamide is dissolved in the sesame oil with the aid of sonication and is packaged in soft gelatin capsules using methods known in the art.

[4] = Oral syrup in human (Example IX); format: in vivo; conditions: one teaspoon of syrup, 70 kg adult human
Protocol: as §1
The above ingredients are combined to produce a syrup and are packaged under sterile conditions in 6 oz. bottles.

[5] = unless administered in toxic quantities; antipyretic analgesics; cited from earlier work

CCCCCCCC/C=C\CCCCCCCC(=O)NCc1ccc(OCCN)c(OC)c1 [N-((4-(2-aminoethoxy)-3-methoxyphenyl)-methyl)-9Z-octadecenamide]
% Inhibition (of paw volume/swelling vs control) ([1]; 25 mg/kg): 53.5% | % Inhibition (of paw volume/swelling vs control) ([1]; 50 mg/kg): 73.7% | % Inhibition (of paw volume/swelling vs control) ([1]; 100 mg/kg): 64.9% | % Inhibition (of paw volume/swelling vs control) ([1]; 200 mg/kg): 61.4% | Mean Latency Times (Rodent Hot Plate Test; 75 mg/kg oral, 1.5 hr post dose): 21.8 s | Mean Latency Times (Rodent Hot Plate Test; 75 mg/kg oral, 3 hr post dose): 18.9 s | Mean Latency Times (Rodent Hot Plate Test; 75 mg/kg oral, 5 hr post dose): 18.7 s | Mean Latency Times (Rodent Hot Plate Test; 75 mg/kg oral, 24 hr post dose): 11.2 s | Mean Latency Times (Rodent Hot Plate Test; 150 mg/kg oral, 1.5 hr post dose): 30.6 s | Mean Latency Times (Rodent Hot Plate Test; 150 mg/kg oral, 3 hr post dose): 18.9 s | Mean Latency Times (Rodent Hot Plate Test; 150 mg/kg oral, 5 hr post dose): 15.0 s | Mean Latency Times (Rodent Hot Plate Test; 150 mg/kg oral, 24 hr post dose): 11.5 s | Mean Latency Times (Rodent Hot Plate Test; 300 mg/kg oral, 1.5 hr post dose): 30.7 s | Mean Latency Times (Rodent Hot Plate Test; 300 mg/kg oral, 3 hr post dose): 22.6 s | Mean Latency Times (Rodent Hot Plate Test; 300 mg/kg oral, 5 hr post dose): 21.0 s | Mean Latency Times (Rodent Hot Plate Test; 300 mg/kg oral, 24 hr post dose): 16.5 s | potency and efficacy relative to codeine (Rodent Hot Plate Test; oral): at least as potent and efficacious as the known opiate codeine | % Analgesia ([2]; 1 mg/kg subcutaneous): 22.3% | % Analgesia ([2]; 2 mg/kg subcutaneous): -13.7% | % Analgesia ([2]; 4 mg/kg subcutaneous): 34.3% | % Analgesia ([2]; 8 mg/kg subcutaneous): 57.8% | % Analgesia ([2]; 10 mg/kg oral): 55.8% | % Analgesia ([2]; 10 mg/kg subcutaneous): 91.4% | % Analgesia ([2]; 25 mg/kg oral): 71.7% | % Analgesia ([2]; 75 mg/kg oral): 88.3% | % Analgesia ([2]; 100 mg/kg subcutaneous): 99.0% | % Analgesia ([2]; 150 mg/kg oral): 95.5% | % Analgesia ([2]; 300 mg/kg oral): 93.2% | analgesic potency compared with N-vanillyloleamide ([2]; oral, at a substantially lower dose): substantially greater analgesic potency at a substantially lower dose | analgesia [3]: producing analogesia | reduction of inflammation [3]: reducing inflammation | analgesia [4]: substantially similar reduction of inflammation and analgesic effect | reduction of inflammation [4]: substantially similar reduction of inflammation

CC(=O)Nc1ccc(O)cc1 [acetaminophen]
activity in the RHP system [5]: little or no activity

CC(=O)Oc1ccccc1C(=O)O [aspirin]
activity in the RHP system [5]: little or no activity
